Data taken from paper PMC9217967, “Simultaneous production and sustainable eutectic mixture based purification of narringinase with Bacillus amyloliquefaciens by valorization of tofu wastewater” (Scientific Reports, 2022).

Tested on: T1, naringinase
T1 construct: native enzyme from culture, NADES extractive fermentation, Sephadex G-15 and DEAE-Sepharose; a beta-glucosidase activity (prunin to naringenin) may be included
Experiment: Lineweaver-Burk; modified Davis assay, residual naringin at […] nm
Assay type: biochemical, Bacillus amyloliquefaciens
Details: general assay: acetate buffer pH 4.2, 333 K, 60 min; printed unit is not a concentration; printed kcat/Km fits 1.5 × 10^-3 M

C[C@@H]1O[C@@H](O[C@H]2[C@H](Oc3cc(O)c4c(c3)O[C@H](c3ccc(O)cc3)CC4=O)O[C@H](CO)[C@@H](O)[C@@H]2O)[C@H](O)[C@H](O)[C@H]1O [Naringin]
Km: 1500 µM
